ChEMBL document CHEMBL1151523, “Synthesis of ()-6-(3-aminopropyloxy)methyl-4-demethoxy-6, 7-dideoxy-daunomycinone, a new dna intercalator related to anthracyclines” (Bioorg Med Chem Lett, 1995)

How the values were obtained:
Format in all cases: nucleic-acid assay, Bos taurus
Nucleic Acid [1] = experiment: Binding affinity to Calf thymus DNA type XV
Nucleic Acid [2] = experiment: Binding affinity to Calf thymus DNA type XV; value ranges from 1E4 - 3E4 M-1
Nucleic Acid [3] = experiment: Binding affinity to Calf thymus DNA type XV; value ranges from 4E6 - 6E6 M-1
Nucleic Acid [4] = experiment: Binding affinity to Calf thymus DNA type XV; value ranges from 2E6 - 4E6 M-1

`CC(=O)[C@@]1(O)CCc2c(c(O)c3c(c2COCCCN)C(=O)c2ccccc2C3=O)C1.Cl` was tested, and the Ka (Nucleic Acid [1]) was 61000 M⁻¹.
`COc1cccc2c1C(=O)c1c(O)c3c(c(O)c1C2=O)C[C@@](O)(C(C)=O)C[C@@H]3O` [DAUNOMYCINONE] gave a Ka (Nucleic Acid [2]) of 10000 M⁻¹.
For `COc1cccc2c1C(=O)c1c(O)c3c(c(O)c1C2=O)C[C@@](O)(C(C)=O)C[C@@H]3O[C@H]1C[C@H](N)[C@H](O)[C@H](C)O1.Cl` [DAUNORUBICIN HYDROCHLORIDE], the Ka (Nucleic Acid [3]) was 4000000 M⁻¹.
`COc1cccc2c1C(=O)c1c(O)c3c(c(O)c1C2=O)C[C@@](O)(C(=O)CO)C[C@@H]3O[C@H]1C[C@H](N)[C@H](O)[C@H](C)O1` [DOXORUBICIN] showed a Ka (Nucleic Acid [4]) of 2000000 M⁻¹.
